Data taken from patent US5505715A, “Iontophoretic transdermal delivery of deoxyspergualin compounds” (priority 1994, dated 1996).
“Also recorded” adds a separate entry of the source. Like-named read-outs stand apart in the source and are kept apart here.

Legend:
[1] = Experimental: Applicants have evaluated the in vitro delivery of DSG through human cadaver skin using iontophoresis.
An in vitro skin permeation study was conducted to evaluate the iontophoretic transdermal delivery of deoxyspergualin trihydrochloride (DSG) (MW=496) through human cadaver skin mounted in side-by-side glass diffusion cells. A 1.09% w/v solution of DSG was used as the donor solution. The receptor solution was 0.5M NaH2 PO4 aqueous solution. A commercially available power supply (Scepter, Keltronics Corp., Oklahoma City, Okla.) was used. Platinum electrodes were used for this study. The anode was connected to the electrode in the donor side while the cathode was connected to the electrode in the receptor (counterion) fluid. A constant DC current (0.5 mA, 0.78 mA/cm^2) was applied for a period of 48 hours. The receptor solution was sampled at appropriate time intervals. The samples were analyzed for DSG by reverse-phase HPLC using post-column derivatization and fluorescence detection.

[2] = set-up: species or system fuzzy rat; details: rat, in vivo
Experimental: Applicants have further conducted an in vivo study to investigate the rate and extent of absorption of DSG in fuzzy rats following transdermal iontophoretic administration. Using iontophoresis, approximately 4 mg of DSG (i.e., between 15-20 mg/kg) was delivered to fuzzy rats over a three-hour period. This is equivalent to a delivery rate of about 230 μg/cm^2 /hr of DSG. Relatively high serum levels of DSG, about 18 μg/ml, were observed after iontophoretic administration.
An aqueous solution of DSG trihydrochloride (10 mg/ml) was prepared two days prior to the experiment and stored at -5° C. until the start of the experiment. This solution was kept refrigerated during the course of the experiment.
Four male fuzzy rats from Harlan Laboratories (Indianapolis, Ind.) were used in this study after a one week quarantine period. The fuzzy rat is a hypotrichotic genetic mutuant of the normal albino rat. The main difference between adult fuzzy and normal haired rats is the poorly developed hair follicles in the skin of the former. As a result, adult fuzzy rats are almost devoid of hair. The fuzzy rats have an intact immune system. […]
Blood samples were taken from the tail artery during the treatment and at the end of the treatment period. […] Blood samples, used electrodes and skin wipes, and urine were analyzed for DSG by scintillation counting. The urine samples were also analyzed by HPLC.

[3] = system: anti-KLH antibody response (keyhole limpet hemocyanin); assay: in vivo immunosuppression (anti-KLH antibody response) in fuzzy rats; set-up: species or system fuzzy rat
Text: The humoral response of animals to the foreign protein keyhole limpet hemocyanin (KLH) is used routinely as a model system to test the efficacy of immunosuppressive drugs. Activity in this model has correlated well with activity for suppressing rejection of an allograft or suppressing the development of autoimmune disease in animals. […] The antibody level in the treated animals on the fourteenth day following the initial treatment was still only 6% of the level of the control animals.
Six fuzzy rats were used in this study. The procedure for this study was based on the model described by Tepper et al., Inhibition of Antibody Production by the Immunosuppressive Agent, 15-Deoxyspergualin, Transplant Proc., 23:328-32 (1991). This model involves immunizing the animals with a potent immunogenic antigen, keyhole limpet hemocyanin (KLH). The serum anti-KLH antibody levels (immune response) in the control and treated animals are then measured over 14 days. An effective immunosuppressive agent should result in a suppression of the immune response in the treated animals.
All six fuzzy rats were immunized with a solution of keyhole limpet hemocyanin (1 mg) by intraperitoneal injection. Two rats were used as controls and were not treated with DSG. The other four rats received DSG by transdermal iontophoresis. The electrodes and power supply used in the study of Example 2 were also used for this study. DSG solution (1.5 ml, 15.34 mg) was added to the donor (active) electrode just prior to the experiment. The electrodes were applied to each of the four participating fuzzy rats (one on either side of the spine). Prior to DSG treatment, the animals were anesthetized with METOFANE (methoxyflurane, Pitman-Moore, Mundelein, Ill.) and the hair on the dorsal side depilated. An anesthetic cocktail consisting of 10 ml of KETASET (ketamine HCL, 100 mg/ml; Aveco Co., Inc., Fort Dodge, Iowa) mixed with 2 ml ROMPUN (xylazine, 20 mg/ml; Mobay Corp., Shawnee, Kans.) was used at 0.1 ml per 100 g in order to maintain the animals under anesthesia during the treatment period. A current density of 0.5 mA/cm^2 /hr (2.9 mA total) was used to deliver the DSG. The four rats received DSG by iontophoresis for 3 hours daily over a period of three days (Days 0, 1 and 2) (Day 0 was the first day of the experiment). During this period food and water were provided ad libitum and these four animals were housed individually in metabolic cages so that urine could be collected for analysis. On Day 3 the animals were weighed and then returned to their regular cages for the remaining duration of the study. […]
The blood samples were stored on ice for 1 hour to coagulate and then centrifuged. The serum was separated and analyzed using an ELISA method described below. […] Aliquots were analyzed by HPLC. […]

[4] = cited from earlier work
[5] = system: allograft survival; details: used prophylactically; cited from earlier work
[6] = system: rheumatoid arthritis, diabetes, lupus and multiple sclerosis models; details: in vivo; cited from earlier work
[7] = system: organ transplant rejection; details: humans; cited from earlier work
[8] = system: human anti-mouse antibody (HAMA) response; details: patients treated with monoclonal antibody therapy, cited from earlier work
[9] = cited from earlier work; remark: listed apart in the source
[10] = system: interleukin-2 production; details: cited from earlier work
[11] = system: tumors; details: cited from earlier work
[12] = system: immune activity; details: cited from earlier work

## N=C(N)NCCCCCCC(=O)NC(O)C(=O)NCCCCNCCCN (stereo not drawn) [DSG]
[1]
  change of permeation rate in later time period: permeation rate decreased during the later time period
  equivalent delivery for a 10 cm^2 delivery system: 135 mg/day
  equivalent dose for a 70 kg average body weight person: 2 mg/kg/day
  expected delivery for a 20 cm^2 donor electrode: 270 mg/day
  passive permeation across human cadaver skin: very little passive permeation
  permeation rate across human cadaver skin: 564 μg/cm^2 /hr
[2]
  dose delivered by iontophoresis per body weight: 15 to 20 mg/kg
[2]; topical or ocular, 3 h
  serum level of DSG: about 18 μg/ml
[3]; Day 14, iontophoresis 3 hours daily for three days
  antibody level in treated animals as % of control: 6%
[3]; iontophoresis 3 hours daily for three days, versus untreated control
  suppression of immune response: substantially suppressed the immune response; also recorded: effectively suppressed the immune response
[3]; of four rats treated by iontophoresis
  deaths before Day 7: Two
[3]; rat, in vivo
  dose delivered relative to maximum tolerated dose (MTD): proximate to the maximum tolerated dose (MTD)
[4]; 4 mg/kg by 3 hour i.v. infusion
  Cmax: about 10 μg/ml
[4]; human, in vivo
  clearance from plasma (in words): relatively rapid clearance
  plasma clearance: about 48,000 ml/hr
[5]
  activity in extending allograft survival: significant activity in extending allograft survival
[6]
  activity in animal models of autoimmune disease: effective in animal models in the treatment of autoimmune diseases like rheumatoid arthritis, diabetes and multiple sclerosis
[7]
  clinical activity as an immunosuppressant: clinical activity as an immunosuppressant
[8]
  activity against HAMA response: immunosuppressive activity against the human anti-mouse antibody (HAMA) response
[8]; listed as Deoxyspergualin
  activity against HAMA response: useful to suppress human anti-mouse antibody (HAMA) response
[9]; compared to cyclosporin A, azathioprine and prednisone (b7 also OKT3)
  side effect profile: superior side effect profile
[9]; in vivo
  dose limiting toxicity: myelosuppression
[9]; unlike cyclosporin A
  nephrotoxicity: not nephrotoxic
[10]
  inhibition of interleukin-2 production: does not inhibit interleukin-2production
[11]
  antitumor efficacy: appears to have antitumor efficacy
[12]
  immunosuppressive activity (in words): excellent immunosuppressive activity
[12]; versus cyclosporin A, azathioprine and prednisone
  immunosuppressive potency relative to marketed immunosuppressants: at least as potent as other, currently marketed immunosuppressants
